Values quoted from earlier work in patent publication US20100113583A1, “COMBINATION THERAPIES FOR THE TREATMENT OF OBESITY” (priority 2008, published 2010).

Legend:
[1] = for weight loss of body weight for drug compared with placebo: literature studies

Compound	efficacy in clinical use ([1]; clinical use as weight loss drug)	weight loss of body weight for drug compared with placebo [1]	clinically significant side effect / limitation of clinical use
CC(C)(N)Cc1ccccc1 [phentermine]	limited efficacy	about 5%	–
CCCCCCCCCCC[C@@H](C[C@@H]1OC(=O)[C@H]1CCCCCC)OC(=O)[C@H](CC(C)C)NC=O [orlistat]	–	about 5%	GI side effects
CCNC(C)Cc1cccc(C(F)(F)F)c1 (stereo not drawn) [fenfluramine]	–	–	caused heart-valve complications
CC(C)CC(N(C)C)C1(c2ccc(Cl)cc2)CCC1 (stereo not drawn) [sibutramine]	–	about 5%	can cause hypertension
CCN[C@@H](C)Cc1cccc(C(F)(F)F)c1 [dexfenfluramine]	–	about 5%	suspected heart valvulopathy
